Laboratory results from patent US20110251085A1, “IN VITRO METHOD TO DETERMINE WHETHER A DRUG CANDIDATE ACTIVE AGAINST A TARGET PROTEIN IS ACTIVE AGAINST A VARIANT OF SAID PROTEIN” (VIVALIS, priority 2008, published 2011).
“Also recorded” adds a separate entry of the source. Read-outs that look alike come from different tables or passages of the source.

Columns and labels:
native NS4A-NS3 protease = molecular target: T1, native NS4A-NS3 protease (Hepatitis C virus genotype 1b, UniProt P26662, I1158V/V1140I); experiment: 3D-Screen NS4A-NS3 protease platform, luciferase reporter, Hela cells, native; assay type: cell-based, HCV genotype 1b; conditions: HeLa; 2 uM final concentration, 3D-sensor V7-62
T1 construct: the NS3 protease (residues 3-181); expressed in transfected cells; host or cells: Hela cells
Procedure: (§3) Cell culture supernatant was discarded and 100 ul of Lysis buffer were added to each well. Following 10 nm of vigorous shaking, the lysate was transferred to white opaque 96 well-plates and 100 ul of Luciferin buffer were added. Chemi-luminescence measurement was performed immediately using a Microlumat LB96 luminometer (Berthold, Thoiry, France) with 1 or 10 sec integration time.
3D-sensors confirmed in yeast were further investigated in Hela cells.

[1] = molecular target: T2, native NS4A-NS3 full length protein (Hepatitis C virus genotype 1b, UniProt P26662); experiment: 3D-Screen NS4A-NS3 full length platform, luciferase reporter, Hela cells, native; assay type: cell-based, HCV genotype 1b; set-up: the GSGS linker and the NS3 protease (residues 3-631); expressed in transfected cells; conditions: HeLa; 2 uM final concentration, 3D-sensor H5-34
Procedure: as §3

NS5BΔ21 = molecular target: T3, NS5BΔ21 (Hepatitis C virus genotype 1b, UniProt P26662); assay type: cell-based, HCV genotype 1b; conditions: selective medium lacking histidine, leucine and tryptophane, supplemented with ligand, X-Gal overlay
T3 construct: lexA/truncated HCV polymerase lacking the C-terminal 21 amino-acids fusion protein as a bait; expressed in transfected cells; host or cells: Saccharomyces cerevisiae L40, plasmid pVVS468
Procedure: Yeast cells carrying the bait (NS5BΔ21-LexA) were transformed with the prey represented by a library of random peptides (in frame with the viral VP16 activation domain). […] The interacting peptides were then tested in presence of ligands known to induce conformational changes in the bait NS5B.
The naïve yeast was transformed with the pVVS468 (NS5BΔ21 fused to LexA) according to the Lithium Acetate transformation protocol (Schiestl et al, 1989). […] Resulting double transformants were spread on SD Agar medium lacking Tryptophan and Leucine, and incubated for 48 hours at 30° C. Colonies were then scraped and mixed. 1/500th of the suspension obtained was plated on SD Agar medium lacking Tryptophan, Leucine and Histidine to identify HIS3 reporter's activation. After 3 to 5 days of growth, an X-Gal overlay was performed to identify LacZ activation. An X-Gal solution was mixed with an equal volume of 1% agarose cooled to 50° C. then poured slowly over yeast colonies on the surface of agar plates. The individual clones that stained blue were picked up to be grown overnight in deep wells in order to be further analyzed.
Yeast colonies containing a peptide interacting with the bait were grown overnight in 96-well deepwells in trp-leu-liquid medium. They were then spotted using a plugger either on trp-leu-his-or trp-leu-solid medium supplemented with different concentrations of specific or non specific drugs or an equivalent amount of solvent (DMSO). […] Result was confirmed at least 3 times.
Yeast two-hybrid experiments were carried in the L40 strain (ATCC, Molsheim, France) transformed with a lexA/truncated HCV polymerase lacking the C-terminal 21 amino-acids fusion protein as a bait and the VVS001 peptide library as a prey. […] Conformation sensitive peptides or “3D-sensors” were then identified by addition to the selected individual yeast colonies of cVVS-023477 or cVVS-023476, two anti-NS5B drugs known to induce conformational changes in the target polymerase (FIG. 1b).

native NS5BΔ21 = molecular target: T4, native NS5BΔ21 (Hepatitis C virus genotype 1b, UniProt P26662); experiment: 3D-Screen-NS5B platform, luciferase reporter, Hela cells, native NS5BΔ21; assay type: cell-based, HCV genotype 1b; conditions: HeLa, 24 hours; for inhibition at 10 µM: 10 uM final concentration, 3D-sensor N21C272, versus DMSO
T4 construct: expressed in transfected cells; host or cells: Hela cells, plasmid pVVS478
Procedure: Transfections were performed for 2 hours in 100 mm dishes in 2 to 4 million cells with 5 to 20 ug of total DNA complexed to jetPEI (PolyPLus transfection, Illkirch, France) with a N/P ratio of 8 The optimal ratio between the plasmids encoding for the luciferase reporter, the target and the selected 3Dsensor was: 3 ug/1 ug/0.5 ug. Cells were dissociated and 25000 cells per well were seeded in 96 well culture treated plates (BD Biosciences, Erembodegem, Belgium).
Compound library's plates were thawed at room temperature. Drugs were handled by a Genesis workstation (Tecan, Lyon, France) and added to the cells at a 5 uM (in 0.5% DMSO) final concentration. Screening was performed by runs of twenty plates. Hits were identified by measurement of the luciferase activity.
Cell culture supernatant was discarded and 100 ul of Lysis buffer were added to each well. Following […] of vigorous shaking, the lysate was transferred to white opaque 96 well-plates and 100 ul of Luciferin buffer were added. Chemi-luminescence measurement was performed immediately using a Microlumat LB96 luminometer (Berthold, Thoiry, France) with 1 or 10 sec integration time.
Selected hits were synthesized and tested at concentrations varying between 0.01 uM and 100 uM final concentration so as to determine their IC50 on 3 independent experiments.
3D-sensors confirmed in yeast were further investigated in human cells. Among the reasons of choosing Hela cells figured their wide use, easiness of manipulation and capacity of replicating subgenomic HCV replicons (Zhu et al., 2003; Kato et al., 2005).
To validate whether drug's action on our system was stokiometric or not, Hela cells were transiently transfected with three expression plasmids encoding the reporter gene luciferase, the target protein and the conformation sensitive peptide N21C272. After incubation with increasing amounts of reference drugs cVVS-023476 or cVVS-023477, luciferase expression was measured.

[2] = molecular target: T5, NS4A-NS3 full length protein D168V (Hepatitis C virus genotype 1b, UniProt P26662, D1194V); experiment: 3D-Screen NS4A-NS3 full length mutant profiling platform, Huh7 cells, D168V; assay type: cell-based, HCV genotype 1b
T5 construct: the GSGS linker and the NS3 protease (residues 3-631); expressed in transfected cells; host or cells: Huh7 hepatoma cells
Procedure: (§1) Hela cells (ATCC, Molsheim, France) were maintained in EMEM (Minimum Essential Medium Eagle with Earle's Balanced Salt solution without L-Glutamine; Biowhittaker/Cambrex, East Rutherford, N.J., USA) supplemented with 10% FBS (JRH), 2 mM Glutamine (Biowhittaker/Cambrex), 1% Non-essential Amino acids (Biowhittaker/Cambrex), 100 units/ml Penicillin and 100 ug/ml Streptomycin. Cells were kept in a humidified 5% CO2 atmosphere at 37° C. and dissociated using Trypsine-EDTA (1×) when reaching 80-90% confluence. Huh-7 hepatoma derived cells (Nakabayashi H et al, 1982) were maintained in half volume of DMEM (Dulbecco's […] Medium without L-Glutamine; Lonza, Basel, Switzerland) and half volume of Ham's F12 medium (Lonza, Basel, Switzerland) supplemented with 10% FBS (SAFC, USA), 1 mM Glutamine (Lonza, Basel, Switzerland), 0.5 mM Sodium pyruvate (Lonza, Basel, Switzerland), 100 units/ml Penicillin and 100 ug/ml Streptomycin. Cells were kept in a humidified 5% CO2 atmosphere at 37° C. and dissociated using Trypsine-EDTA (1×) when reaching 80-90% confluence. […]
(§2) Cell culture supernatant was discarded and 100 ul of Lysis buffer were added to each well. […] Chemi-luminescence measurement was performed immediately using a Microlumat LB96 luminometer (Berthold, Thoiry, France) with 1 or 10 sec integration time.

[3] = molecular target: T6, NS4A-NS3 full length protein A156V (Hepatitis C virus genotype 1b, UniProt P26662, A1182V); experiment: 3D-Screen NS4A-NS3 full length mutant profiling platform, Huh7 cells, A156V; assay type: cell-based, HCV genotype 1b
T6 construct: the GSGS linker and the NS3 protease (residues 3-631); expressed in transfected cells; host or cells: Huh7 hepatoma cells
Procedure: as §1, §2

protease = conditions: described in Lamarre et al, 2003; cited from earlier work
[4] = molecular target: T2, native NS4A-NS3 full length protein; experiment: 3D-Screen NS4A-NS3 full length mutant profiling platform, Huh7 cells, 3D-sensor VF-9A11, native; assay type: cell-based, HCV genotype 1b; set-up: the GSGS linker and the NS3 protease (residues 3-631); expressed in transfected cells; host or cells: Huh7 hepatoma cells
Procedure: as §1, §2

ER = experiment: Yeast two-hybrid spot test, control clone ER + 3D-sensor No 30-2; assay type: cell-based
Excerpt: (a) Isolation of peptides interacting with the NS5BΔ21 in the yeast two-hybrid-system. Yeast cells carrying the bait (NS5BΔ21-LexA) were transformed with the prey represented by a library of random peptides (in frame with the viral VP16 activation domain). Colonies growing on selective medium and staining blue allowed the isolation of individual peptides that would specifically interact with the polymerase. (b) Isolation of conformation sensitive peptides. The interacting peptides were then tested in presence of ligands known to induce conformational changes in the bait NS5B. The “3D-sensors” were thus identified as the ones whose binding to the target polymerase was prevented by known anti-NS5B. The corresponding colonies didn't show any expression of the selection or reporter gene. (c) Characterization of NS5BΔ21 “3D-sensors” in a spot test. Here were represented 2 selected yeast colonies: one carrying the ER and its specific peptide called No 30-2 isolated previously and used as a control, the other carrying the NS5BΔ21 and its specific peptide called N21C272. Both clones were spotted on selective medium lacking histidine, leucine and tryptophane, supplemented or not with polymerase ligands and overlayed with an X-Gal staining The NS5BΔ21+N21C272 clone grew on selective medium in the absence of any NS5B ligand and stained positive for LacZ. […]

[5] = molecular target: NS5BΔ21 L30R mutant fused to Gal4 DBD (pVVS475) (yeast; hepatitis C virus genotype 1b), P26662; experiment: cell-based or functional assay
[6] = molecular target: NS5BΔ21 L30S mutant fused to Gal4 DBD (pVVS474) (yeast; hepatitis C virus genotype 1b), P26662; experiment: cell-based or functional assay
[7] = molecular target: single chain NS4A-NS3 full length A156S mutant fused to Gal4 DBD (yeast; hepatitis C virus genotype 1b), P26662; experiment: cell-based or functional assay
[8] = molecular target: single chain NS4A-NS3 full length A156T mutant fused to Gal4 DBD (yeast; hepatitis C virus genotype 1b), P26662; experiment: cell-based or functional assay
[9] = molecular target: single chain NS4A-NS3 full length A156V mutant fused to Gal4 DBD (pVVS783) (yeast; hepatitis C virus genotype 1b), P26662; experiment: cell-based or functional assay
[10] = molecular target: single chain NS4A-NS3 full length D168V mutant fused to Gal4 DBD (yeast; hepatitis C virus genotype 1b), P26662; experiment: cell-based or functional assay
[11] = molecular target: single chain NS4A-NS3 full length R109K mutant fused to Gal4 DBD (yeast; hepatitis C virus genotype 1b), P26662; experiment: cell-based or functional assay
[12] = molecular target: single chain NS4A-NS3 full length T54A mutant fused to Gal4 DBD (yeast; hepatitis C virus genotype 1b), P26662; experiment: cell-based or functional assay
[13] = molecular target: single chain NS4A-NS3 full length protein (native) fused to the yeast Gal4 DBD (pVVS772) (yeast; hepatitis C virus genotype 1b), P26662; experiment: cell-based or functional assay
[14] = Huh7, VF-9A11, listed as cVVS-23591

CCC[C@H](NC(=O)[C@@H]1[C@H]2CCC[C@H]2CN1C(=O)[C@@H](NC(=O)[C@@H](NC(=O)c1cnccn1)C1CCCCC1)C(C)(C)C)C(=O)C(=O)NC1CC1 [cVVS-023518, 2-(2-{2-Cyclohexyl-2-[(pyrazine-2-carbonyl)-amino]-acetylamino}-3,3-dimethyl-butyryl)-octahydro-cyclopenta[c]pyrrole-1-carboxylic acid (1-cyclopropylaminooxalyl-butyl)-amide]
inhibition at 2 µM (native NS4A-NS3 protease): 90%
inhibition at 2 µM [1]: 60%

O=C(O)CP(=O)(O)O [Phosphonoacetic acid]
growth on selective medium and LacZ staining of the NS5BΔ21+N21C272 yeast clone (NS5BΔ21): had no effect
growth on selective medium and LacZ staining of the NS5BΔ21+N21C272 yeast clone (NS5BΔ21; listed as PAA): didn't show any effect
inhibition at 10 µM (native NS5BΔ21): -2.2%

NC(=O)c1ncn([C@@H]2O[C@H](CO)[C@@H](O)[C@H]2O)n1 [Ribavirin]
inhibition at 75 µM (native NS5BΔ21; 75 uM final concentration, 3D-sensor N21C272): 8.7%

O=C(O)P(=O)(O)O [Foscarnet]
growth on selective medium and LacZ staining of the NS5BΔ21+N21C272 yeast clone (NS5BΔ21): had no effect; also recorded: didn't show any effect
inhibition at 10 µM (native NS5BΔ21): 11.7%

COc1ccc2c(O[C@@H]3C[C@H]4C(=O)N[C@]5(C(=O)O)C[C@H]5/C=C\CCCCC[C@H](NC(=O)OC5CCCC5)C(=O)N4C3)cc(-c3csc(NC(C)C)n3)nc2c1 [cVVS-023951, (1S,4R,6S,7Z,14S,18R)-14-cyclopentyloxycarbonylamino-18-[2-(2-isopropylamino-thiazol-4-yl)-7-methoxyquinolin-4-yloxy]-2,15-dioxo-3,16-diazatricyclo[14.3.0.04.6]nonadec-7-ene-4-carboxylic acid]
resistance profile: sensitivity of the platform to the compound's inhibition ([2]; Huh7, VF-9A11): high resistance
resistance profile: sensitivity of the platform to the compound's inhibition [2, 14]: resistance in the same range as what was previously reported
resistance profile: sensitivity of the platform to the compound's inhibition ([3]; Huh7, VF-9A11): high resistance
resistance profile: sensitivity of the platform to the compound's inhibition [3, 14]: resistance in the same range as what was previously reported
activity on the protease (protease): low nanomolar range
resistance profile: sensitivity of the platform to the compound's inhibition ([4]; native, Huh7, VF-9A11): active

C[C@]12CC[C@@H]3c4ccc(O)cc4CC[C@H]3[C@@H]1CC[C@@H]2O [Estradiol]
sensitivity of the control clone (ER + 3D sensor No 30.2 interaction) to ligand (ER): active

VFII-N4: NS3 full length 3D-sensor peptide VNAWAWGW (SEQ ID No 65) (NS3 full length peptide sensor VFII-N4)
sensitivity of the 3D-sensor to Telaprevir and Ciluprevir [4]: as sensitive as the 3D-Sensor VF-9A11

DGCARCVASVQLYGD (modifications not checked) [3D-sensor N21C272 fused to the VP16 activation domain]
luciferase signal [5]: 3100 RLU
luciferase signal [6]: 7640 RLU

GTQKEAVIYPCYVPW (modifications not checked) [3D-sensor VF-9A11 fused to the VP16 activation domain]
luciferase signal over background [7]: > 3
luciferase signal over background [8]: > 3
luciferase signal over background [9]: > 3
luciferase signal over background [10]: > 3
luciferase signal over background [11]: > 3
luciferase signal over background [12]: > 3
luciferase signal over background [13]: > 3
